Where two headings read alike, the source gives them in different places.
How the values were obtained:
[1] = Cyto-toxicity assay (MTT) in MT2 cells without virus; format: cell-based; settings: human
Method: For cyto-toxicity assay the same amount of MT2 cells as in antiviral assay without virus was added to the 96 well plates. The cyto-toxicity was measured using MTT reagent in parallel with p24 estimation. The percent viability is calculated in comparison with vehicle control.

HIV-1 strain 92HT599 = assay: Antiviral activity: p24 estimation in MT2 cells infected with HIV-1 strain 92HT599; format: cell-based; settings: for inhibition at 0.1 µM: read-out: Antiviral activity % inhibition 100 nM; for inhibition at 1 µM: read-out: Antiviral activity % inhibition 1000 nM
Method: MT2 cells were infected with HIV-1 strain 92HT599 (10 TCID 50/30000 cells). The infected cells were plated at the concentration of […] cells per well in 96 well plate. Test compound was added to the micro plate in defined format with the final concentration of DMSO (vehicle) is not more than 1%. Incubation was carried out in CO2 incubator for ˜96 hours for viral infection. At the end of incubation period an aliquot from each well was taken for p24 estimation. The quantitation of p24 is an index for antiviral activity of the compound. Percent inhibition was calculated with reference to control values (vehicle controls).
p-24 estimation was carried out using Advance biosciences kit as per the procedure detailed by supplier.

[2] = Human immunodeficiency virus 1, 100 nM, MT2 cells, HIV-1 92HT599, ~96 hours, p24
[3] = Human immunodeficiency virus 1, 1000 nM, MT2 cells, HIV-1 92HT599, ~96 hours, p24
[4] = Human immunodeficiency virus 1, MT2, 96 h

Compound	viability at 100 nM [1]	viability at 1000 nM [1]	inhibition at 0.1 µM (HIV-1 strain 92HT599; [2])	inhibition at 1 µM (HIV-1 strain 92HT599; [3])	viability at 100 nM ([1]; 100 nM, MT2 cells, MTT, read-out: Cytotoxicity % viability 100 nM)	viability at 1000 nM ([1]; 1000 nM, MT2 cells, MTT, read-out: Cytotoxicity % viability 1000 nM)	inhibition at 0.1 µM (HIV-1 strain 92HT599; [4])	inhibition at 1 µM (HIV-1 strain 92HT599; [4])
C=C(C)[C@@H]1CC[C@]2(C(=O)N3CCCCC3)CC[C@]3(C)[C@H](CC[C@@H]4[C@@]5(C)CC[C@H](OC(=O)[C@H]6[C@@H](CC(=O)O)C6(C)C)C(C)(C)[C@@H]5CC[C@]43C)[C@@H]12 [Compound 2, 2-((1R,3S)-2,2-dimethyl-3-(((1R,3aS,5aR,5bR,7aR,9S,11aR,11bR,13aR,13bR)-5a,5b,8,8,11a-pentamethyl-3a-(piperidine-1-carbonyl)-1-(prop-1-en-2-yl)icosahydro-1H-cyclopenta[a]chrysen-9-yloxy)carbonyl)cyclopropyl)acetic acid]	96%	95%	77%	98%				
CC(C)(CC(=O)O[C@H]1CC[C@]2(C)[C@H]3CC[C@@H]4[C@H]5[C@H](C6(C)CC6)CC[C@]5(C(=O)N5CCCCC5)CC[C@@]4(C)[C@]3(C)CC[C@H]2C1(C)C)C(=O)O [Compound 3, 2,2-dimethyl-4-oxo-4-((1R,3aS,5aR,5bR,7aR,9S,11aR,11bR,13aR,13bR)-5a,5b,8,8,11a-pentamethyl-1-(1-methylcyclopropyl)-3a-(piperidine-1-carbonyl)icosahydro-1H-cyclopenta[a]chrysen-9-yloxy)butanoic acid]	100%	99%	97%	97%				
C=C(C)[C@@H]1CC[C@]2(c3nnc(-c4ccccc4)o3)CC[C@]3(C)[C@H](CC[C@@H]4[C@@]5(C)CC[C@H](OC(=O)[C@H]6[C@@H](CC(=O)O)C6(C)C)C(C)(C)[C@@H]5CC[C@]43C)[C@@H]12 [Example 5, 2-((1R,3S)-2,2-dimethyl-3-(((1R,3aS,5aR,5bR,7aR,9S,11aR,11bR,13aR,13bR)-5a,5b,8,8,11a-pentamethyl-3a-(5-phenyl-1,3,4-oxadiazol-2-yl)-1-(prop-1-en-2-yl)icosa hydro-1H-cyclopenta[a]chrysen-9-yloxy)carbonyl)cyclopropyl)acetic acid]	95%	98%	49%	92%				
C=C(C)[C@@H]1CC[C@]2(c3nnc(-c4cccnc4)o3)CC[C@]3(C)[C@H](CC[C@@H]4[C@@]5(C)CC[C@H](OC(=O)[C@H]6[C@@H](CC(=O)O)C6(C)C)C(C)(C)[C@@H]5CC[C@]43C)[C@@H]12 [Example 6, 2-((1R,3S)-2,2-dimethyl-3-(((1R,3aS,5aR,5bR,7aR,9S,11aR,11bR,13aR,13bR)-5a,5b,8,8,11a-pentamethyl-1-(prop-1-en-2-yl)-3a-(5-(pyridin-3-yl)-1,3,4-oxadiazol-2-yl)icosahydro-1H-cyclopenta[a]chrysen-9-yloxy)carbonyl)cyclopropyl)aceticacid]	94%	87%	85%	92%				
[2H]C([2H])([2H])C(N1CCN(C(=O)[C@]23CC[C@@H](C(=C)C)[C@@H]2[C@H]2CC[C@@H]4[C@@]5(C)CC[C@H](OC(=O)CC(C)(C)C(=O)O)C(C)(C)[C@@H]5CC[C@@]4(C)[C@]2(C)CC3)CC1)C([2H])([2H])[2H] [Example 7, 4-((1R,3aS,5aR,5bR,7aR,9S,11aR,11bR,13aR,13bR)-3a-(4-(1-methylethyl-2,2,2,1′,1′,1′-D6)piperazine-1-carbonyl)-5a,5b,8,8,11a-pentamethyl-1-(prop-1-en-2-yl)icosahydro-1H-cyclopenta[a]chrysen-9-yloxy)-2,2-dimethyl-4-oxobutanoic acid]					99%	96%	98%	97%
[2H]C([2H])([2H])C(N1CCN(C(=O)[C@H]2C[C@@H](NC(=O)[C@]34CC[C@@H](C(=C)C)[C@@H]3[C@H]3CC[C@@H]5[C@@]6(C)CC[C@H](OC(=O)CC(C)(C)C(=O)O)C(C)(C)[C@@H]6CC[C@@]5(C)[C@]3(C)CC4)C2(C)C)CC1)C([2H])([2H])[2H] [Example 8, 4-((1R,3aS,5aR,5bR,7aR,9S,11aR,11bR,13aR,13bR)-3a-((1R,3S)-3-(4-(1-methylethyl-2,2,2,1′,1′,1′-D6)piperazine-1-carbonyl)-2,2-dimethylcyclobutylcarbamoyl)-5a,5b,8,8,11a-pentamethyl-1-(prop-1-en-2-yl)icosahydro-1H-cyclopenta[a]chrysen-9-yloxy)-2,2-dimethyl-4-oxobutanoic acid]	90%	97%	100%	100%				
C=C(C)[C@@H]1CC[C@]2(C(=O)N[C@@H]3C[C@H](C(=O)N4CCCCC4)C3(C)C)CC[C@]3(C)[C@H](CC[C@@H]4[C@@]5(C)CC[C@H](OC(=O)CC(C)(C)C(=O)OCOC)C(C)(C)[C@@H]5CC[C@]43C)[C@@H]12 [Example 9, 4-(1R,3aS,5aR,5bR,7aR,9S,11aR,11bR,13aR,13bR)-3a-((1R,3S)-2,2-dimethyl-3-(piperidine-1-carbonyl)cyclobutylcarbamoyl)-5a,5b,8,8,11a-pentamethyl-1-(prop-1-en-2-yl)icosahydro-1H-cyclopenta[a]chrysen-9-yl 1-methoxymethyl 2,2-dimethylsuccinate]	82%	88%	64%	99%				
C=C(C)[C@@H]1CC[C@]2(C(=O)N[C@@H]3C[C@H](c4nnc(CC(C)C)o4)C3(C)C)CC[C@]3(C)[C@H](CC[C@@H]4[C@@]5(C)CC[C@H](OC(=O)CC(C)(C)C(=O)O)C(C)(C)[C@@H]5CC[C@]43C)[C@@H]12 [Example 16, 4-((1R,3aS,5aR,5bR,7aR,9S,11aR,11bR,13aR,13bR)-3a-((1R,3S)-3-(5-isobutyl-1,3,4-oxadiazol-2-yl)-2,2-dimethylcyclobutylcarbamoyl)-5a,5b,8,8,11a-pentamethyl-1-(prop-1-en-2-yl)icosahydro-1H-cyclopenta[a]chrysen-9-yloxy)-2,2-dimethyl-4-oxobutanoic acid]	81%	79%	100%	100%				
C=C(C)[C@@H]1CC[C@]2(C(=O)N3CCN(CC)CC3)CC[C@]3(C)[C@H](CC[C@@H]4[C@@]5(C)CC[C@H](OC(=O)[C@H]6[C@@H](CC(=O)O)C6(C)C)C(C)(C)[C@@H]5CC[C@]43C)[C@@H]12 [Example 19, 2-((1R,3S)-3-(((1R,3aS,5aR,5bR,7aR,9S,11aR,11bR,13aR,13bR)-3a-(4-ethylpiperazine-1-carbonyl)-5a,5b,8,8,11a-pentamethyl-1-(prop-1-en-2-yl)icosahydro-1H-cyclopenta[a]chrysen-9-yloxy)carbonyl)-2,2-dimethylcyclopropyl)aceticacid]	100%	100%	91%	95%				
CC(C)(CC(=O)O[C@H]1CC[C@]2(C)[C@H]3CC[C@@H]4[C@H]5[C@H](C6(C)CC6)CC[C@]5(C(=O)N5CCN(C(=O)C(C)(CO)CO)CC5)CC[C@@]4(C)[C@]3(C)CC[C@H]2C1(C)C)C(=O)O [Example 35]	70%	81%	26%	84%				
CC(CO)(CO)C(=O)N1CCN(C(=O)[C@]23CC[C@@H](C4(C)CC4)[C@@H]2[C@H]2CC[C@@H]4[C@@]5(C)CC[C@H](OC(=O)[C@H]6C[C@@H](C(=O)O)C6(C)C)C(C)(C)[C@@H]5CC[C@@]4(C)[C@]2(C)CC3)CC1 [Example 36]	77%	90%	33%	99%				
CC(C)(C)OC(=O)N1CCN(C(=O)[C@]23CC[C@@H](C4(C)CC4)[C@@H]2[C@H]2CC[C@@H]4[C@@]5(C)CC[C@H](OC(=O)CC(C)(C)C(=O)O)C(C)(C)[C@@H]5CC[C@@]4(C)[C@]2(C)CC3)CC1 [Example 37]	73%	72%	30%	99%				
CC(C)(C)OC(=O)N1CCN(C(=O)[C@]23CC[C@@H](C4(C)CC4)[C@@H]2[C@H]2CC[C@@H]4[C@@]5(C)CC[C@H](OC(=O)[C@H]6C[C@@H](C(=O)O)C6(C)C)C(C)(C)[C@@H]5CC[C@@]4(C)[C@]2(C)CC3)CC1 [Example 38]	85%	83%	68%	99%				
COCCOCCOC1CCN(C(=O)[C@]23CC[C@@H](C4(C)CC4)[C@@H]2[C@H]2CC[C@@H]4[C@@]5(C)CC[C@H](OC(=O)CC(C)(C)C(=O)O)C(C)(C)[C@@H]5CC[C@@]4(C)[C@]2(C)CC3)CC1 [Example 43, 4-(((1R,3aS,5aR,5bR,7aR,9S,11aR,11bR,13aR,13bR)-3a-(4-(2-(2-methoxyethoxyl)ethoxy)piperidine-1-carbonyl)-5a,5b,8,8,11a-pentamethyl-1-(1-methylcyclopropyl)icosahydro-1H-cyclopenta[a]chrysen-9-yl)oxy)-2,2-dimethyl-4-oxobutanoic acid]	100%	100%	99%	99%				

Source: patent US20150119373A1, “NOVEL BETULINIC ACID DERIVATIVES AS HIV INHIBITORS” (HETERO RESEARCH FOUNDATION, priority 2012, published 2015)
